The values that follow come from the Deep4Chem optical property database.

This data set in a line: solvent given as SMILES.

Under “in O”, `O=C(O)CCCCCn1c2ccccc2c(=O)c2cc(Br)ccc21` yielded an emission maximum of 432 nm.
Compound `COc1ccc(C#CC2=C3CCc4ccccc4C3=[O+][B-](F)(F)O2)cc1` registered an emission maximum (in ClCCl) of 493 nm.
Consider `CC1=CC(C)=[N+]2C1=C(c1ccc(O)cc1)c1c(C)cc(/C=C/C=C3/N(C)c4ccccc4C3(C)C)n1[B-]2(F)F`, for which the emission maximum (in O) is reported as 708 nm.
Regarding `CCCCCCCCCCCCN1C(=O)c2c(c3ccc4cc(-c5ccc(C=O)cc5)c(OC)cc4c3c3c2ccc2cc(-c4ccc(C=O)cc4)c(OC)cc23)C1=O`, the emission maximum (in ClCCl) came to 523 nm.
In the case of `Cc1cc(N(C)C)cc(C)c1/C=C/C=C/c1ccc(C#N)cc1`, the emission maximum reads like this: (in CC#N) 599 nm; (in CCCCCC) 442 nm; (in CCOCC) 527 nm.
Take `CCCCCCCN1C(=CC2=C([O-])C(=CC3=[N+](CCCCCCC)c4ccccc4C3(C)C)C2=C(C#N)C#N)Sc2ccccc21`: the emission maximum reads like this: (in C1COCCO1) 709 nm; (in CCO) 699 nm; (in CN(C)C=O) 702 nm; (in ClC(Cl)Cl) 709 nm.
As to `Cc1cc(C)c(B(c2cc(-c3ccccc3)sc2-c2sc(-c3ccccc3)cc2P(=O)(c2ccccc2)c2ccccc2)c2c(C)cc(C)cc2C)c(C)c1`, the emission maximum (in CO) is reported as 558 nm.
`Clc1cc(Cl)c([C](c2c(Cl)cc(Cl)cc2Cl)c2c(Cl)cc(-n3c4ccccc4c4ccccc43)cc2Cl)c(Cl)c1`: the emission maximum by setting is: (in C1CCCCC1) 628 nm; (in ClC(Cl)Cl) 680 nm.
For the compound `CCCCN1C(=O)c2cc(Oc3ccc(C(C)(C)C)cc3)c3c4c(Oc5ccc(C(C)(C)C)cc5)c(Oc5ccc(C(C)(C)C)cc5)c5c6c(cc(Oc7ccc(C(C)(C)C)cc7)c(c7c(Oc8ccc(C(C)(C)C)cc8)c(Oc8ccc(C(C)(C)C)cc8)c(c2c37)C1=O)c64)C(=O)N(CCCC)C5=O`, the emission maximum (in ClC(Cl)Cl) came out at 610 nm.
Same read-out and setting: in the case of `COc1ccc(N(c2ccc(OC)cc2)c2ccc(-c3ccc(C=C(C#N)C#N)o3)cc2)cc1` it was 696 nm.
As for `CC1=CC(/C=C/c2ccc(N(C)C)cc2)=[N+]2C1=C(c1ccc(I)cc1)c1c(C)cc(/C=C/c3ccc(N(C)C)cc3)n1[B-]2(F)F`, the emission maximum (in CC#N) is listed as 768 nm.
For the compound `C(=C(c1ccccc1)c1ccccc1)c1ccc(-c2cc(-c3ccc(C=C(c4ccccc4)c4ccccc4)cc3)c(-c3ccc(C=C(c4ccccc4)c4ccccc4)cc3)cc2-c2ccc(C=C(c3ccccc3)c3ccccc3)cc2)cc1`, the emission maximum (in C1CCOC1) is on record as 440 nm.
`CCCCn1c(-c2ccc(-c3ccc(-c4ccc(-c5n(CCCC)c6cc(C)ccc6[n+]5CCCC)cc4)cc3)cc2)[n+](CCCC)c2ccc(C)cc21` displayed an emission maximum (in O) of 397 nm.
Where the note is “in ClC(Cl)Cl”, `Cc1cc(C)c(C2=C3C=CC=[N+]3[B-]3(F)Oc4cc(O)cc5c6ccc(C)cc6c6cc2n3c6c45)c(C)c1` (centres undefined) registered an emission maximum of 649 nm.
`Cc1ccc(-c2c3nc(c(-c4ccc(C)cc4)c4ccc([nH]4)c(-c4ccc(OC(=O)C(C)c5ccc(-c6ccccc6)c(F)c5)cc4)c4nc(c(-c5ccc(C)cc5)c5ccc2[nH]5)C=C4)C=C3)cc1` (centres undefined) displayed an emission maximum (in ClCCl) of 653 nm.
Consider `CN(C)c1ccc2[c](c1)[Ge]([CH3])([CH3])[C]1=CC(=[N+](C)C)C=CC1=C2`, for which the emission maximum (in O) is recorded as 634 nm.
In turn, `CCCCN1/C(=C/C=C/C2=[N+](C)c3ccccc3C2(C)C)C(C)(C)c2ccccc21` gave an emission maximum (in CS(C)=O) of 565 nm.
On to `CCCCCCCCC1(CCCCCCCC)c2cc(C=O)ccc2-c2ccc(/C=C/c3ccc(N(c4ccccc4)c4ccccc4)cc3)cc21`, for which the emission maximum stood at 451 nm (in C1CCOC1); 450 nm (in C1COCCO1); 486 nm (in CC#N); 481 nm (in CC(C)=O); 442 nm (in CCCCCC); 456 nm (in CCOC(C)=O). Also, the emission maximum is recorded as 490 nm (in CN(C)C=O); 485 nm (in CS(C)=O); 451 nm (in Cc1ccccc1); 459 nm (in ClC(Cl)Cl); 469 nm (in ClCCl).
On to `CCC1(CC)c2ccccc2-c2c1c1c(c3c2C(CC)(CC)c2cc(/C=C/c4cccs4)ccc2-3)C(CC)(CC)c2ccccc2-1`, for which, for the setting “in C1CCOC1”, the emission maximum stood at 395 nm.
As for `CN(C)c1ccc(/C=C/C=C/c2ccc([N+](=O)[O-])c(O)c2)cc1`, the emission maximum was found to be 530 nm (in C1CCCCC1); 686 nm (in C1CCOC1); 634 nm (in C1COCCO1); 523 nm (in CCCCCCC); 609 nm (in Cc1ccccc1).
For `Clc1ccc(-c2nc3ccccc3c3cc4ccccn4c23)s1`, under “in CS(C)=O”, the emission maximum is listed as 523.5 nm.
With `CN(C)c1ccc(-c2cc(-c3ccc4ccccc4c3)nc(-c3ccccc3)n2)cc1`, the emission maximum was determined as 422 nm (in C1CCCCC1), 599 nm (in CS(C)=O) and 510 nm (in ClC(Cl)Cl).
On to `CCOC(=O)/C=C/C1=C(c2ccc(C)cc2)C2=Nc3c(-c4ccc(C)cc4)c(Br)c(-c4ccc(C)cc4)n3[B-](F)(F)[N+]2=C1c1ccc(C)cc1`, for which the emission maximum (in ClC(Cl)Cl) is listed as 703 nm.
As to `COc1cc(OC)cc(C2=C(c3cc(OC)c(OC)c(OC)c3)C3=Nc4c(-c5cc(OC)c(OC)c(OC)c5)c(-c5cc(OC)cc(OC)c5)c(-c5ccc(C(C)(C)C)cc5)n4[B-](F)(F)[N+]3=C2c2ccc(C(C)(C)C)cc2)c1`, the emission maximum (in Cc1ccccc1) came out at 721 nm.
As for `CC1(C)Nc2ccccc2-c2[nH]c3ccccc3c(=O)c21`, the emission maximum (in C1CCOC1) came out at 483 nm; the emission maximum (in CC#N) was 507 nm; the emission maximum (in CCCCO) is 521 nm; the emission maximum (in CCCO) came out at 522 nm; the emission maximum (in CCO) turned out to be 523 nm; the emission maximum (in CCOC(C)=O) worked out at 491 nm. For the same compound, the emission maximum is, setting by setting: (in CN(C)C=O) 506 nm; (in CO) 531 nm; (in CS(C)=O) 510 nm; (in Cc1ccccc1) 471 nm; (in ClC(Cl)(Cl)Cl) 460 nm; (in ClCCl) 491 nm. The emission maximum reads like this: (in O) 552 nm; (in c1ccccc1) 474 nm.
For `COC(=O)C(NC(=O)OC(C)(C)C)c1ccc2oc(-c3ccc(O)cc3O)nc2c1` (centres undefined), the emission maximum runs as follows: (in CC1CCCCC1) 470 nm; (in CC#N) 380 nm; (in CO) 365 nm.
`O=C(N/N=C/c1ccccc1O)c1ccccc1`: the emission maximum stood at 306 nm (in C1CCOC1); 373 nm (in CC#N); 426 nm (in CC(C)=O); 429 nm (in CCO); 458 nm (in CN(C)C=O); 552 nm (in CS(C)=O). Moreover, the emission maximum (in ClCCl) is reported as 392 nm.
On to `Cc1cc2c3ccccc3n(C)c2c2c1c1ccccc1n2C`, for which the emission maximum (in ClCCl) is recorded as 391 nm.
With `N#Cc1cc(N2c3ccccc3Sc3ccccc32)cc(N2c3ccccc3Sc3ccccc32)c1`, the emission maximum (in Cc1ccccc1) was 536 nm.
On to `CC(C)(C)c1ccc2c(c1)c1cc(C(C)(C)C)ccc1n2-c1ccc(C#Cc2ccc(C#Cc3ccc(-n4c5ccc(C(C)(C)C)cc5c5cc(C(C)(C)C)ccc54)cc3)cc2)cc1`, for which the emission maximum by setting is: (in CC#N) 470 nm; (in CCCCC) 385 nm; (in CO) 453 nm; (in Cc1ccccc1) 400 nm; (in ClC(Cl)Cl) 419 nm; (in ClCCl) 437 nm.
With `O=Cc1cc(O)ccc1O`, the emission maximum (in CC(C)=O) came out at 423 nm; the emission maximum (in CCCO) was determined as 484 nm; the emission maximum (in CCO) was found to be 487 nm; the emission maximum (in CN(C)C=O) was found to be 440 nm; the emission maximum (in CN(C)P(=O)(N(C)C)N(C)C) is reported as 438 nm; the emission maximum (in CNC=O) stood at 479 nm. The emission maximum runs as follows: (in CS(C)=O) 446 nm; (in NC=O) 490 nm.
As for `COc1cc2c3c(c4cc(OC)c(OC)c(OC)c4c2c(OC)c1OC)=[N+]1C(=C(c2c(C)cc(C)cc2C)c2cc4c5cc(OC)c(OC)c(OC)c5c5c(OC)c(OC)c(OC)cc5c4n2[B-]1(F)F)C=3`, the emission maximum by setting is: (in C1CCCCC1) 749 nm; (in C1CCOC1) 763 nm; (in CC#N) 755 nm; (in Cc1ccccc1) 767 nm; (in ClCCl) 771 nm.
The compound `CCCC1(CCC)c2cc(C#N)ccc2-c2ccc(C#N)cc21` registered an emission maximum (in C1CCCCC1) of 324 nm.
`CC[N+]1(CC)CN2C(=N1)C(C(=O)O)=Cc1cc(Cl)ccc12` displayed an emission maximum (in O) of 472 nm.
As to `CC1(C)C(/C=C/C=C/C=C/C=C2/N(c3ccc(S(=O)(=O)[O-])cc3)c3ccc(S(=O)(=O)[O-])cc3C2(C)C)=[N+](c2ccc(S(=O)(=O)[O-])cc2)c2ccc(S(=O)(=O)[O-])cc21`, the emission maximum is given as 782 nm (in CO) and 779 nm (in O).
Where the note is “in CCO”, `CN(C)c1ccc(-c2cc[n+](C)cc2)s1` returned an emission maximum of 507 nm.
Take `O=S1(=O)c2ccccc2-c2c1c1ccccc1p2-c1ccccc1` (centres undefined): the emission maximum is, setting by setting: (in C1CCCCC1) 436 nm; (in CC#N) 453 nm; (in CCO) 464 nm; (in ClCCl) 453 nm.
As to `O=C(O)c1ccc(C2=C(/C=C/c3[se]c4ccccc4[n+]3CCCCS(=O)(=O)[O-])CCC/C2=C\C=C2/[Se]c3ccccc3N2CCCCS(=O)(=O)[O-])cc1`, where the note is “in CO”, the emission maximum was 813 nm.
Take `CCOC(=O)CN(CC(=O)OCC)c1ccc(-c2cc(-c3ccccn3)nc(-c3ccccn3)c2)cc1`: the emission maximum runs as follows: (in CC#N) 452 nm; (in CCOC(C)=O) 419 nm; (in CN(C)C=O) 458 nm; (in CS(C)=O) 466 nm; (in c1ccccc1) 400 nm.
Compound `CCCC1=CC2=C(c3c(C)cc(C)cc3C)c3cc(CCC)c(-c4ccc5ccc6cccc7ccc4c5c67)n3[B-](F)(F)[N+]2=C1c1ccc2ccc3cccc4ccc1c2c34` gave an emission maximum (in ClC(Cl)Cl) of 626 nm.
On to `O=S(=O)(c1ccc(N(c2ccccc2)c2ccccc2)cc1)c1ccc(N(c2ccccc2)c2ccccc2)cc1`, for which the emission maximum reads like this: (in Cc1ccccc1) 402 nm; (in O=P(c1ccccc1)(c1ccccc1)c1ccccc1Oc1ccccc1P(=O)(c1ccccc1)c1ccccc1) 421 nm.
